Measured values as given in US8343475B2, “Small cationic antimicrobial peptides” (priority 2006, dated 2013).
In brackets after ≈: the same amount, converted by molar mass. Residues, ends and D or L forms follow the SMILES beside them.

Experiments:
ESBL E. cloacae = format: cell-based, Enterobacter cloacae
Description: (§1) Minimal inhibitory concentration (MIC) determination. The MIC of the peptides were measured using a modified broth microdilution method in Mueller Hinton (MH) medium (Wu M, Hancock R E W. 1999. Interaction of the cyclic antimicrobial cationic peptide bactenecin with the outer and cytoplasmic membrane. J Biol Chem 274, 29-35). Briefly, the peptides were dissolved and stored in glass vials. The assay was performed in sterile 96-well polypropylene microtitre plates were used. Serial dilutions of the peptides to be assayed were performed in 0.01% acetic acid (Fisher) containing 0.2% bovine serum albumin (Boehringer Mannheim GmbH) at 10× the desired final concentration. Ten microlitres of the 10× peptides were added to each well of a 96-well polypropylene plate containing 90 μl of MH media per well. Bacteria were added to the plate from an overnight culture at 2-7×10^5 colony forming units/ml and incubated over night at 37° C. The MIC was taken as the concentration at which no growth was observed.
(§2) All peptides derived from the 1st, 2nd, and 3rd quartiles were further evaluated for their antibacterial activities against several highly antibitoic resistant pathogens (Table 3). These included clinical isolates of MRSA, ESBL E. cloacae, and multidrug resistant Pseudomonas strains including Brazilian clinical isolates of P. aeruginosa that are resistant to meropenem, ceftazidime, piperacillin/tazobactam, ciprofloxacin, cefepime and polymyxin B, and the Liverpool Epidemic Strains. […] Such results characterize the developed peptides as excellent antibiotic candidates, providing new means for treating most dangerous and severe forms of human infections.

[1] = system: MCP-3 release by human PBMC; assay: Chemokine induction in PBMC (capture ELISA); format: cell-based; details: background (6) subtracted
Description: FIG. 16. Induction of MCP3 release by 7.5×10^5 human PBMC in response to treatment with 20 or 100 μg/ml of different peptides for 24 hours.
(§3) Venous blood (20 ml) from healthy volunteers was collected in Vacutainer® collection tubes containing sodium heparin as an anticoagulant (Becton Dickinson, Mississauga, ON) in accordance with UBC ethical approval and guidelines. Blood was diluted 1:1 with complete RPMI 1640 medium and separated by centrifugation over a Ficoll-Paque® Plus (Amersham Biosciences, Piscataway, N.J., USA) density gradient. White blood cells were isolated from the buffy coat, washed twice in RPMI 1640 complete medium, and the number of peripheral blood mononuclear cells (PBMC) was determined by trypan blue exclusion. PBMC (5×10^5) were seeded into 12-well tissue culture dishes (Falcon; Becton Dickinson) at 0.75 to 1×10^6 cells/ml at 37° C. in 5% CO2. The above conditions were chosen to mimic conditions for circulating blood monocytes entering tissues at the site of infection via extravasation.
(§4) Following incubation of the cells under various treatment regimens, the tissue culture supernatants were centrifuged at 1000×g for 5 min, then at 10,000×g for 2 min to obtain cell-free samples. Supernatants were aliquoted and then stored at −20° C. prior to assay for various chemokines by capture ELISA (eBioscience and BioSource International Inc., CA, USA respectively)

[2] = system: MCP-1 release by human PBMC; assay: Chemokine induction in PBMC (capture ELISA); format: cell-based; details: background (204) subtracted
Description: FIG. 15. Induction of MCP-1 release by 7.5×10^5 human PBMC in response to treatment with 20 or 100 μg/ml of different peptides for 24 hours.
as §3, §4

[3] = system: Liverpool Epidemic Strains; format: cell-based, Pseudomonas aeruginosa
Description: as §1, §2

[4] = system: CXCL1 (Gro-α) release by human PBMC; assay: Chemokine induction in PBMC (capture ELISA); format: cell-based; details: background (196) subtracted
Description: FIG. 17. Induction of CXCL1 (Gro-α) release by 7.5×10^5 human PBMC in response to treatment with 20 or 100 μg/ml of different peptides for 24 hours.
as §3, §4

[5] = system: multidrug resistant Pseudomonas maltophilia ATCC13637; format: cell-based
Description: as §1
(§5) The selected peptides were synthesized and assayed against several major antibiotic-resistant pathogens. Initially, the peptides were screened against the laboratory strain of P. aeruginosa PAO1 to compare the results with the training data. […] The antibacterial activity in the form of minimal inhibitory concentration (MIC) of the other studied peptides was assessed in greater depth (Table 9) against many highly antibiotic resistanct pathogens.

[6] = system: ESBL Klebsiella pneumonia clinical strain 63575; format: cell-based
Description: as §1, §5

[7] = system: ESBL E. coli clinical strain 64771; format: cell-based; details: ESBL clinical strain 64771
Description: as §1, §5

[8] = system: clinical isolates of MRSA; format: cell-based, Staphylococcus aureus
Description: as §1, §2

[9] = system: Enterococcus faecalis ATCC29212; format: cell-based; details: ATCC29212
Description: as §1
(§6) Strains. For the killing assay a mini-Tn5-lux mutant in Pseudomonas aeruginosa H103 was used. The strain is called H1001 and contains a fliC::luxCDABE transcriptional fusion resulting in constitutive expression of luciferase. The bacterial strains used for the antimicrobial activity assays included Escherichia coli UB1005 (F-, nalA37, metB1), a wild-type Salmonella enterica ssp. typhimurium (S. typhimurium), wild-type Pseudomonas aeruginosa PAO1 strain H103, Enterococcus faecalis ATCC29212, Staphylococcus aureus ATCC25923, and a clinical isolate of Staphylococcus epidermidis obtained from Dr. D. Speert (Department of Medicine, University of British Columbia). Antifungal activity was tested using a lab isolate of Candida albicans obtained from Dr. B. Dill (Department of Microbiology and Immunology, University of British Columbia).

[10] = system: Staphylococcus aureus ATCC25923; format: cell-based; details: ATCC25923
Description: as §1, §6

[11] = system: Pseudomonas aeruginosa PAO1 strain H103; format: cell-based; details: PAO1
Outline: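 Modified broth microdilution MIC in Mueller Hinton medium, peptides diluted in 0.01% acetic acid/0.2% BSA, polypropylene plates. Inoculum 2-7×10^5 CFU/ml, overnight at 37 °C; MIC is the lowest concentration with no visible growth.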

Escherichia coli UB1005 = format: cell-based; details: UB1005
Description: as §1, §6

[12] = system: lab isolate of Candida albicans; format: cell-based; details: lab isolate of
Description: as §1, §6

[13] = system: wild-type Salmonella enterica ssp. typhimurium; format: cell-based
Description: as §1, §6

[14] = system: clinical isolate of Staphylococcus epidermidis; format: cell-based; details: clinical isolate of
Description: as §1, §6

Row | Compound | MIC (ESBL E. cloacae) | Chemokine induction MCP-3 ([1]; 20 μg/ml peptide) | Chemokine induction MCP-3 ([1]; 100 μg/ml peptide) | Chemokine induction MCP-1 ([2]; 20 μg/ml peptide) | Chemokine induction MCP-1 ([2]; 100 μg/ml peptide) | MIC [3] | Chemokine induction Gro-α ([4]; 20 μg/ml peptide) | Chemokine induction Gro-α ([4]; 100 μg/ml peptide) | MIC [5] | MIC [6] | MIC [7] | MIC [8] | MIC [9] | MIC [10] | MIC against P. aeruginosa PAO1 [11] | other results
1 | CC[C@H](C)[C@H](NC(=O)[C@@H](N)CCCCN)C(=O)N[C@@H](Cc1c[nH]c2ccccc12)C(=O)N[C@@H](Cc1c[nH]c2ccccc12)C(=O)N[C@@H](Cc1c[nH]c2ccccc12)C(=O)N[C@@H](Cc1c[nH]c2ccccc12)C(=O)N[C@@H](CCCNC(=N)N)C(=O)N[C@@H](CCCCN)C(=O)N[C@@H](CCCNC(=N)N)C(N)=O [HHC8, KIWWWWRKR] (H-KIWWWWRKR-NH2; N-terminus assumed) | 94 µM (≈ 136 µg/mL) | 1 pg/mL | 4 pg/mL | 68 pg/mL | 835 pg/mL | 5.9 µM (≈ 8.52 µg/mL) | 9 pg/mL | -11 pg/mL | 3 µM (≈ 4.33 µg/mL) | 47 µM (≈ 67.9 µg/mL) | 6 µM (≈ 8.66 µg/mL) | 6 µM (≈ 8.66 µg/mL) | 24 µM (≈ 34.7 µg/mL) | 6 µM (≈ 8.66 µg/mL) |  | 
2 | CC[C@H](C)[C@H](NC(=O)[C@H](CCCNC(=N)N)NC(=O)[C@H](CCCCN)NC(=O)[C@@H](NC(=O)[C@H](Cc1c[nH]c2ccccc12)NC(=O)[C@H](Cc1c[nH]c2ccccc12)NC(=O)[C@H](Cc1c[nH]c2ccccc12)NC(=O)[C@H](CCCNC(=N)N)NC(=O)[C@@H](N)CC(C)C)[C@@H](C)CC)C(N)=O [HHC57, LRWWWIKRI] (H-LRWWWIKRI-NH2; N-terminus assumed) | 50 µM (≈ 67.8 µg/mL) | 0 pg/mL | 9 pg/mL | 146 pg/mL | 1364 pg/mL | 6 µM (≈ 8.13 µg/mL) | 21 pg/mL | 18 pg/mL | 3 µM (≈ 4.07 µg/mL) | 50 µM (≈ 67.8 µg/mL) | 13 µM (≈ 17.6 µg/mL) | 63 µM (≈ 85.4 µg/mL) | 13 µM (≈ 17.6 µg/mL) | 6 µM (≈ 8.13 µg/mL) | 4 to 12 µM | 
3 | CC[C@H](C)[C@H](NC(=O)[C@H](Cc1c[nH]c2ccccc12)NC(=O)[C@@H](NC(=O)[C@H](Cc1c[nH]c2ccccc12)NC(=O)[C@H](CCCNC(=N)N)NC(=O)[C@H](CCCCN)NC(=O)[C@@H](N)CCCCN)C(C)C)C(=O)N[C@@H](CCCNC(=N)N)C(=O)N[C@@H](Cc1ccc(O)cc1)C(N)=O [HHC69, KKRWVWIRY] (H-KKRWVWIRY-NH2; N-terminus assumed) | 25 µM (≈ 33.3 µg/mL) | 1 pg/mL | 0 pg/mL | 440 pg/mL | 245 pg/mL | 3 µM (≈ 4 µg/mL) | 17 pg/mL | -3 pg/mL | 1.6 µM (≈ 2.13 µg/mL) | 51 µM (≈ 68 µg/mL) | 13 µM (≈ 17.3 µg/mL) | 13 µM (≈ 17.3 µg/mL) | 25 µM (≈ 33.3 µg/mL) | 13 µM (≈ 17.3 µg/mL) | 4 to 12 µM | 
4 | N=C(N)NCCC[C@H](NC(=O)[C@H](CCCNC(=N)N)NC(=O)[C@@H](N)Cc1ccccc1)C(=O)N[C@@H](Cc1c[nH]c2ccccc12)C(=O)N[C@@H](Cc1c[nH]c2ccccc12)C(=O)N[C@@H](CCCCN)C(=O)N[C@@H](Cc1c[nH]c2ccccc12)C(=O)N[C@@H](Cc1ccccc1)C(=O)N[C@@H](CCCCN)C(N)=O [HHC53, FRRWWKWFK] (H-FRRWWKWFK-NH2; N-terminus assumed) | 24 µM (≈ 34.5 µg/mL) | -1 pg/mL | 5 pg/mL | -26 pg/mL | 391 pg/mL | 1.5 µM (≈ 2.16 µg/mL) | -23 pg/mL | 2 pg/mL | 0.8 µM (≈ 1.15 µg/mL) | 24 µM (≈ 34.5 µg/mL) | 6 µM (≈ 8.63 µg/mL) | 3 µM (≈ 4.32 µg/mL) | 24 µM (≈ 34.5 µg/mL) | 1.5 µM (≈ 2.16 µg/mL) | 4 to 12 µM | 
5 | CC[C@H](C)[C@H](NC(=O)[C@H](Cc1c[nH]c2ccccc12)NC(=O)[C@H](CCCCN)NC(=O)[C@@H](N)CCCNC(=N)N)C(=O)N[C@@H](Cc1c[nH]c2ccccc12)C(=O)N[C@@H](CCCNC(=N)N)C(=O)N[C@@H](Cc1c[nH]c2ccccc12)C(=O)N[C@@H](Cc1ccccc1)C(=O)N[C@@H](CC(C)C)C(N)=O [HHC75, RKWIWRWFL] (H-RKWIWRWFL-NH2; N-terminus assumed) | 3 µM (≈ 4.17 µg/mL) | 34 pg/mL | 322 pg/mL | 1313 pg/mL | 6140 pg/mL | 1.5 µM (≈ 2.08 µg/mL) | 554 pg/mL | 1683 pg/mL | 1.5 µM (≈ 2.08 µg/mL) | 3.1 µM (≈ 4.31 µg/mL) | 1.5 µM (≈ 2.08 µg/mL) | 3 µM (≈ 4.17 µg/mL) | 6 µM (≈ 8.34 µg/mL) | 31 µM (≈ 43.1 µg/mL) | 4 to 12 µM | 
6 | CC[C@H](C)[C@H](NC(=O)[C@H](CCCNC(=N)N)NC(=O)[C@H](Cc1ccccc1)NC(=O)[C@H](CCC(N)=O)NC(=O)[C@@H](N)CCCCN)C(=O)N[C@@H](CCCNC(=N)N)C(=O)N[C@H](C(=O)N[C@@H](CCCNC(=N)N)C(=O)N[C@H](C(=O)N[C@H](C(=O)N[C@@H](CCCNC(=N)N)C(=O)N[C@@H](CCCCN)C(N)=O)[C@@H](C)CC)C(C)C)C(C)C [HH12, KQFRIRVRVIRK] (H-KQFRIRVRVIRK-NH2; N-terminus assumed) |  | 91 pg/mL | 21 pg/mL | 1649 pg/mL | 635 pg/mL |  | 773 pg/mL | 172 pg/mL |  |  |  |  |  |  |  | MIC P. aerug [11]: 6 µg/mL (≈ 3.75 µM); MIC E. coli (Escherichia coli UB1005): 3 µg/mL (≈ 1.88 µM); MIC E. faecalis [9]: 25 µg/mL (≈ 15.6 µM); MIC C. albicans [12]: 6 µg/mL (≈ 3.75 µM); MIC S. typhi [13]: 6 µg/mL (≈ 3.75 µM); MIC S. epi. [14]: 1.6 µg/mL (≈ 1 µM); MIC S. aureus [10]: 12 µg/mL (≈ 7.51 µM)
